From patent US10174036B2, “Substituted pyrazoles as JAK inhibitors” (WUXI FORTUNE PHARMACEUTICAL CO., LTD, priority 2015, dated 2019)

Tests used:
Type in all cases: biochemical
[1] = target: T1, JAK3 (Homo sapiens, UniProt P52333); assay: Test for in vitro activity of JAK3 kinase (LANCE Ultra ULight-JAK-1 peptide); settings: selectivity ratio JAK3 versus JAK2; class symbol
T1 construct: purchased Life technology
T1 sequence (P52333 1-1124): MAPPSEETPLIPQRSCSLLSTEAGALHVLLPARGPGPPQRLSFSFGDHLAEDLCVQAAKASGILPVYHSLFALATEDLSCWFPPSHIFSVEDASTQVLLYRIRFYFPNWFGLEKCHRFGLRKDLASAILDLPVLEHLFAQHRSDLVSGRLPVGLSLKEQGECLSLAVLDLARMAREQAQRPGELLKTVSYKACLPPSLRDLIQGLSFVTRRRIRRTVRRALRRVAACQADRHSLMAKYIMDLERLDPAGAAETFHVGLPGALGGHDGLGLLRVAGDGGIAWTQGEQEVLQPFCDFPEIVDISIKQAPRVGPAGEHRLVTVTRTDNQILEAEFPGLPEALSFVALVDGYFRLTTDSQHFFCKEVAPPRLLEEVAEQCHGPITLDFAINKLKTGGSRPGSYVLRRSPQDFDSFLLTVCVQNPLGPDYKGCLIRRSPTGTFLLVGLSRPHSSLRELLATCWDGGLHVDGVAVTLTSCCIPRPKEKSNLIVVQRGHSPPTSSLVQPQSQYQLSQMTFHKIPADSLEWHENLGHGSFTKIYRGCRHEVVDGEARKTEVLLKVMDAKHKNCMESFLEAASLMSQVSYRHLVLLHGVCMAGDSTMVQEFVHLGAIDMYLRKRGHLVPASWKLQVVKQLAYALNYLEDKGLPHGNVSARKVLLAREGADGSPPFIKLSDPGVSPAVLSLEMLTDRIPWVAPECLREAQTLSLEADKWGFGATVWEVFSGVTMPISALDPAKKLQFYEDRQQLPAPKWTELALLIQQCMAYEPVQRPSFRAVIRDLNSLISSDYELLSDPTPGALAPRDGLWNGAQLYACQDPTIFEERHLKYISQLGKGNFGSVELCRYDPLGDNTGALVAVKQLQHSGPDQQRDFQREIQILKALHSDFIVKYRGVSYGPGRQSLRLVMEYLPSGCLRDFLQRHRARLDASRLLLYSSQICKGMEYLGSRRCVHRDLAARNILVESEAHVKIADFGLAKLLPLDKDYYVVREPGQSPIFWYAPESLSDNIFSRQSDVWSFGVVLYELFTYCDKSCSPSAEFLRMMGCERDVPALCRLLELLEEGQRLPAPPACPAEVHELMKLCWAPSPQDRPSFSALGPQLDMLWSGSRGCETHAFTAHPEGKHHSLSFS
Protocol: (§1) Test for In Vitro Activity of Jak1, Jak2, and Jak3 Kinase
(§2) Recombinant human […] of JAK1, JAK2 and JAK3 were purchased from Life technology. LANCE Ultra ULight™-JAK-1 (Tyr1023) peptide and LANCE Eu-W1024 Anti-phosphotyrosine (PT66) were purchased from PerkinElmer. Multimode ELISA, Envison(PerkinElmer) reader was used.
0.05 nM of JAK3 Protein kinase, 50 nM of LANCE Ultra ULight™-JAK-1(Tyr1023) peptide, 4 uM of ATP, 50 mM of HEPES (pH 7.5), 10 mM of MgCl2, 1 mM of EGTA, 2 mM of DTT, 0.01% BRIJ-35. […] The reaction was carried out at room temperature for 90 min and the reaction system was 10 ul.
(§3) Determination for Reaction
(§4) 10 ul detection reagent was added to reaction plate, wherein the final concentration of LANCE Eu-W1024 Anti-phosphotyrosine (PT66) was 2 nM, the final concentration of EDTA was […], incubated at room temperature for 60 min, with Envison reader.
(§5) The reading was converted to inhibition ratio (%) by the following formula: the inhibition ratio (%)=([…])/(Max−Min)×100%.

[2] = target: T2, JAK2 (Homo sapiens, UniProt O60674); assay: Test for in vitro activity of JAK2 kinase (LANCE Ultra ULight-JAK-1 peptide); settings: recombinant human JAK2, 12 uM ATP, 60 min; class symbol
T2 construct: purchased Life technology
Protocol: as §1, §2
The reaction was carried out at room temperature for 60 min and the reaction system was 10 ul.
as §3, §4, §5

[3] = target: T3, JAK1 (Homo sapiens, UniProt P23458); assay: Test for in vitro activity of JAK1 kinase (LANCE Ultra ULight-JAK-1 peptide); settings: selectivity ratio JAK1 versus JAK2; class symbol
T3 construct: purchased Life technology
Protocol: as §1, §2
The reaction was carried out at room temperature for 90 min and the reaction system was 10 ul.
as §3, §4, §5

T3 sequence (P23458 whole entry): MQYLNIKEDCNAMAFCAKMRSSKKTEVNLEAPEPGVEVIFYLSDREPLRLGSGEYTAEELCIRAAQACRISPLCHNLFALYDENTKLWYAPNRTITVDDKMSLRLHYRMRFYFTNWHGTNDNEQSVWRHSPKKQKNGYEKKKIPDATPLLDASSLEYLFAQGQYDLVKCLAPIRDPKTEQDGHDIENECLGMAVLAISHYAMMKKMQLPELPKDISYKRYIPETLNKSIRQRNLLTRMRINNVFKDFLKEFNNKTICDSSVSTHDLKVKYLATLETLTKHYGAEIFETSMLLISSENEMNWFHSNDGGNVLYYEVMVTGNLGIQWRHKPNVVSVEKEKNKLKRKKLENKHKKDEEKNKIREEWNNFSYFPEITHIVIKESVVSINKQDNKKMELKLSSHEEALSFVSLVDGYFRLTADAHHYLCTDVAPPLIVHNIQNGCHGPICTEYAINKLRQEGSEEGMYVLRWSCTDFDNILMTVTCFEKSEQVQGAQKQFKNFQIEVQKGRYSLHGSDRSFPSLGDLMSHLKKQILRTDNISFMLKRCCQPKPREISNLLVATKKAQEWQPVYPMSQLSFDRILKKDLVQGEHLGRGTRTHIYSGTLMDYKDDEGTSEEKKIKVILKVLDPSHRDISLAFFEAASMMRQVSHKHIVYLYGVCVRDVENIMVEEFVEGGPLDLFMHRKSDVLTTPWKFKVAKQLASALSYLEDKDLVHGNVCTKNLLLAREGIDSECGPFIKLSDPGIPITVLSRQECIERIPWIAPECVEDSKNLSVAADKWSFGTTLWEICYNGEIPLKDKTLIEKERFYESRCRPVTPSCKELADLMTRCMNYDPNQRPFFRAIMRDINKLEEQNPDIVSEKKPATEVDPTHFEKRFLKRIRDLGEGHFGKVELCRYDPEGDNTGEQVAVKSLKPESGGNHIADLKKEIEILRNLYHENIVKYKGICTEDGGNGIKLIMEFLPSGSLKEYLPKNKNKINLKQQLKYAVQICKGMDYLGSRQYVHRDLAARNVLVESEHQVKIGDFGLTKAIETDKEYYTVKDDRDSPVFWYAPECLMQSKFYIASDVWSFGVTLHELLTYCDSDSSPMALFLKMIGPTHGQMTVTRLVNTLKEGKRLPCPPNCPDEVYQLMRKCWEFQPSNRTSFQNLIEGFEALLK
T2 sequence (O60674 whole entry): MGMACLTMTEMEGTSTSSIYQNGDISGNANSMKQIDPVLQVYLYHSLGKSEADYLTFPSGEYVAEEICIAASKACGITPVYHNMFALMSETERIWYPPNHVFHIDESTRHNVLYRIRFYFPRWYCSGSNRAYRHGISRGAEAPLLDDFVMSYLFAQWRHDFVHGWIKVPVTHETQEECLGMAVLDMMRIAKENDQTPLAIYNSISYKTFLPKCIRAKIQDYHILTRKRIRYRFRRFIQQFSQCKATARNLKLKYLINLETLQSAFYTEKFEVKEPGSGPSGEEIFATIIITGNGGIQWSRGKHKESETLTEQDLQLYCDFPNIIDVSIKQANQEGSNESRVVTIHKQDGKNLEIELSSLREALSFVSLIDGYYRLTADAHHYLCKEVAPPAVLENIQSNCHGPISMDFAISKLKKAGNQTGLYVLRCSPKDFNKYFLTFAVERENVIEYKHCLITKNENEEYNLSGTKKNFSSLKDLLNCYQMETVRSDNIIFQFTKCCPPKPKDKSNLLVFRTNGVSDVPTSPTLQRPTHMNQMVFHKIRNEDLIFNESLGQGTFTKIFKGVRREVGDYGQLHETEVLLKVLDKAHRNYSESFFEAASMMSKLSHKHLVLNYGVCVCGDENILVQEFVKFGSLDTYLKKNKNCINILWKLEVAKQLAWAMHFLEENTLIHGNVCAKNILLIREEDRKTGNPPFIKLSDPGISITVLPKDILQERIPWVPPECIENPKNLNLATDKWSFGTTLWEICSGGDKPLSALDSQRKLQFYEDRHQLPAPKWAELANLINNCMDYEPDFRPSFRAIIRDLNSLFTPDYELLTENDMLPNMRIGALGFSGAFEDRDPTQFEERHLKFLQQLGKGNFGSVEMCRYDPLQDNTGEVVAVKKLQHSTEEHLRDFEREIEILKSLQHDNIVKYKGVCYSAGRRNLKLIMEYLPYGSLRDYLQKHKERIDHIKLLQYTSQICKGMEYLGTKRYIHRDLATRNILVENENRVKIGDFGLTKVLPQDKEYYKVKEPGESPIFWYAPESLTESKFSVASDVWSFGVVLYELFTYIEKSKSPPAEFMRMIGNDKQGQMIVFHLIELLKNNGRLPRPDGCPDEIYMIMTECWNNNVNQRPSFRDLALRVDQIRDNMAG

Compound	JAK3/JAK2 (times) [1]	IC50 [2]	JAK1/JAK2 (times) [3]
N#CCC1(n2cc(-c3nccc4nc(NC(=O)C5CNC5)nn34)cn2)CN(S(=O)(=O)C(F)(F)F)C1 [WX06, N-[5-[1-[3-(cyanomethyl)-1-(trifluoromethylsulfonyl)cyclobutylamine-3-yl]pyrazole-4-yl]-[1,2,4]triazolo[1,5-c]pyrimidin-2-yl]cyclobutylamine-3-formamide]	F3 (10 < F3 ≤ 25)	10 to 100 nM	F1 (1 ≤ F1 ≤ 5)
COCC(=O)N1CC(CC#N)(n2cc(-c3nccc4nc(NC(=O)C5CC5)nn34)cn2)C1 [WX10, N-[5-[1-[3-(cyanomethyl)-1-(2-methoxyacetyl)azetidine-3-]pyrazole-4-]-[1,2,4]triazoloe[1,5-c]pyrimidine2-] cyclopropane carboxamide]	F1 (1 ≤ F1 ≤ 5)	100 to 1000 nM	F1 (1 ≤ F1 ≤ 5)
N#CCC1(n2cc(-c3cccc4nc(NC(=O)C5CC5)nn34)cn2)CN(S(=O)(=O)C2CC2)C1 [WX08, N-(5-(1-(3-(cyanomethyl)-1-(cyclopropylsulfonyl)azetidine-3-yl)-1H-pyrazole-4-yl)-[1,2,4]triazolo[1,5-a]pyridin-2-yl)cyclopropane formamide]	F4 (25 < F4 ≤ 100)	< 10 nM	F1 (1 ≤ F1 ≤ 5)
CCS(=O)(=O)N1CC(CC#N)(n2cc(-c3cccn4nc(NC(=O)C(F)(F)F)nc34)cn2)C1 [WX22, N-(8-(1-(3-(cyanomethyl)-1-(ethylsulfonyl)azetidine-3-yl)-1H-pyrazole-4-yl)-[1,2,4]triazolo[1,5-a]pyridin-2-yl)-2,2,2-trifluoroacetamide]	F3 (10 < F3 ≤ 25)	100 to 1000 nM	F1 (1 ≤ F1 ≤ 5)
CS(=O)(=O)N1CC(CC#N)(n2cc(-c3cccc4nc(N)nn34)cn2)C1 [WX19, 2-(3-(4-(2-amino-[1,2,4]triazolo[1,5-a]pyridinyl)-1H-pyrazolyl)-1-(methylsulfonyl)cyclobutane)acetonitrile]	F3 (10 < F3 ≤ 25)	10 to 100 nM	F1 (1 ≤ F1 ≤ 5)
CCS(=O)(=O)N1CC(CC#N)(n2cc(-c3cccc4nc(NC(=O)C5CC5)nn34)cn2)C1 [WX16, N-(5-(1-(3-(cyanomethyl)-1-(ethylsulfony)azetidine-3-yl)-1H-pyrazole-4-yl]-[1,2,4]triazolo[1,5-a]pyridin-2-yl)cyclopropyl carboxamide]	F3 (10 < F3 ≤ 25)	< 10 nM	F1 (1 ≤ F1 ≤ 5)
N#CCC1(n2cc(-c3nccc4nc(NC(=O)C5CC(O)C5)nn34)cn2)CN(S(=O)(=O)C(F)(F)F)C1 (stereo not drawn) [WX07, N-[5-[1-[3-(cyanomethyl)-1-(trifluoromethylsulfonyl)cyclobutylamine-3-yl]pyrazole-4-yl]-[1,2,4]triazolo[1,5-c]pyrimidin-2-yl]-3-hydroxy-cyclobutane formamide]	F4 (25 < F4 ≤ 100)	10 to 100 nM	F2 (5 < F2 ≤ 10)

Second part, the molecule after the results:

JAK3/JAK2 (times) [1]	IC50 [2]	JAK1/JAK2 (times) [3]	Compound
F4 (25 < F4 ≤ 100)	10 to 100 nM	F1 (1 ≤ F1 ≤ 5)	N#CCC1(n2cc(-c3cccc4nc(NC(=O)C5CC5)nn34)cn2)CNC1 [WX00, N-[5-[1-[3-(cyanomethyl)azetidine-3-yl]pyrazole-4-yl]-[1,2,4]triazolo[1,5-a]pyridin-2-yl] cyclopropane carboxamide]
F3 (10 < F3 ≤ 25)	10 to 100 nM	F2 (5 < F2 ≤ 10)	N#CCC1(n2cc(-c3nccc4nc(NC(=O)C5CC5)nn34)cn2)CN(S(=O)(=O)C2CC2)C1 [WX03, N-[5-[1-[3-(cyanomethyl)-1-cyclopropylsulfonyl-azetidine-3-yl]pyrazole-4-yl]-[1,2,4]triazolo[1,5-c]pyrimidin-2-yl]cyclopropanecarboxamide]
F4 (25 < F4 ≤ 100)	< 10 nM	F3 (10 < F3 ≤ 25)	CS(=O)(=O)N1CC(CC#N)(n2cc(-c3cccc4nc(N)oc34)cn2)C1 [WX29, 2-(3-(4-(2-aminobenzo[d]oxazole-7-yl)-1H-pyrazole-1-yl)-1-(methylsulfonyl)azetidin-3-yl)acetonitrile]
F3 (10 < F3 ≤ 25)	100 to 1000 nM	F1 (1 ≤ F1 ≤ 5)	N#CCC1(n2cc(-c3cccn4nc(NC(=O)C(F)(F)F)nc34)cn2)CN(S(=O)(=O)C2CC2)C1 [WX23]
F4 (25 < F4 ≤ 100)	< 10 nM	F1 (1 ≤ F1 ≤ 5)	CCS(=O)(=O)N1CC(CC#N)(n2cc(-c3cccn4nc(NC(=O)C5CC5)nc34)cn2)C1 [WX20, N-(8-(1-(3-(cyanomethyl)-1-(ethylsulfonyl)azetidine-3-yl)-1H-pyrazole-4-yl)-[1,2,4]triazolo[1,5-a]pyridin-2-yl) cyclopropanecarboxamide]
F4 (25 < F4 ≤ 100)	< 10 nM	F2 (5 < F2 ≤ 10)	CS(=O)(=O)N1CC(CC#N)(n2cc(-c3cccc4nc(NC(=O)C5CC5)oc34)cn2)C1 [WX30, N-(7-(1-(3-(cyanomethyl)-1-(methylsulfonyl)azetidin-3-yl)-1H-pyrazole-4-yl)benzo[d]oxazole-2-yl) cyclopropanecarboxamide]
F3 (10 < F3 ≤ 25)	< 10 nM	F1 (1 ≤ F1 ≤ 5)	N#CCC1(n2cc(-c3cccc4nc(N)nn34)cn2)CN(S(=O)(=O)C(F)(F)F)C1 [WX18]
